In patent US20260092057A1, “BCL-XL/BCL-2 DEGRADERS AND USES THEREOF” (Kymera Therapeutics, Inc., priority 2022, published 2026):
Where two headings read alike, the source gives them in different places.

Assays:
Format in all cases: cell-based
Caki-2 cells = test: CTG (CellTiter-Glo) cell viability assay, Caki-2; conditions: Caki-2, 3-day, read-out: CTG Chempartner/PHA- Caki-2 3-day: Average external-IC50
Summary of the method: (§1)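 Viability read by CellTiter-Glo luminescence after 3 days' compound exposure at 37 °C under 5% CO2, with 10,000 cells per well. Dosing was nine 1:3 dilutions starting at 10 µM, DMSO normalized to 0.2%; IC50 values come from three-parameter logistic curve fitting.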

MOLT-4 cells = test: CTG (CellTiter-Glo) cell viability assay, MOLT-4; conditions: Homo sapiens, MOLT-4, 72 h, MOLT-4, 3 day; read-out: CTG Cell Viability Assay - MOLT-4 3 day: Average external-IC50
Summary of the method: as §1

BCL-XL = molecular target: T1, BCL-XL (Homo sapiens, UniProt Q07817); test: BCL-XL degradation assay in MOLT-4 cells (ELISA, 6 h); conditions: for DC50: read-out: Bcl-xL ELISA in MOLT-4 degradation 6 h: External Abs-DC50
T1 construct: BCL-XL degradation results in MOLT-4 cells for compounds of the invention; endogenous in cells; host or cells: MOLT-4
T1 sequence (Q07817 whole entry): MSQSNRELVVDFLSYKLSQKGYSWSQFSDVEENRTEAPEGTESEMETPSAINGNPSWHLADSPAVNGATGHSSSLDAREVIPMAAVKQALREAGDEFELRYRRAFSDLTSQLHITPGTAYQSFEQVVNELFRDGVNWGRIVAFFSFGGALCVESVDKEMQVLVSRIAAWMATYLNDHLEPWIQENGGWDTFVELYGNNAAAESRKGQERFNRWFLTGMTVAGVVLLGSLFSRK

SMILES	IC50 (Caki-2 cells; Homo sapiens, CAKI-2, 72 h)	IC50 (MOLT-4 cells)	Dmax (BCL-XL)	DC50 (BCL-XL)	IC50 (Caki-2 cells)
Cc1ncsc1-c1ccc([C@H](C)NC(=O)[C@@H]2C[C@@H](O)CN2C(=O)[C@@H](NC(=O)C2CCN(c3ccc(NC(=O)c4ccc(-c5ccc(Cl)cc5)c(CN5CCN(c6ccc(C(=O)NS(=O)(=O)c7ccc(N[C@H](CCN(C)C)CSc8ccccc8)c([N+](=O)[O-])c7)cc6)CC5)c4)cc3)CC2)C(C)(C)C)cc1 [I-21]	> 30000 nM	> 3000 nM	< 50%	500 to 1000 nM	
Cc1ncsc1-c1ccc(CNC(=O)[C@@H]2C[C@@H](O)CN2C(=O)[C@@H](NC(=O)CCCCCCC(=O)N2CCN(C[C@]3(C)CCC(c4ccc(Cl)cc4)=C(CN4CCN(c5ccc(C(=O)NS(=O)(=O)c6ccc(NCCCN7CCOCC7)c(S(=O)(=O)C(F)(F)F)c6)c(Oc6cnc7[nH]ccc7c6)c5)CC4)C3)CC2)C(C)(C)C)cc1 [I-131]		100 to 1000 nM	< 50%	500 to 1000 nM	> 30000 nM
Cc1ncsc1-c1ccc([C@H](C)NC(=O)[C@@H]2C[C@@H](O)CN2C(=O)[C@@H](NC(=O)CCCCCC(=O)N2CCN(CCCN(C)CC[C@H](CSc3ccccc3)Nc3ccc(S(=O)(=O)NC(=O)c4ccc(N5CCC([C@@H](O)c6ccccc6-c6ccc(Cl)cc6)CC5)cc4)cc3S(=O)(=O)C(F)(F)F)CC2)C(C)(C)C)cc1 [I-24]	> 30000 nM	> 3000 nM	< 50%	500 to 1000 nM	
Cc1ncsc1-c1ccc([C@H](C)NC(=O)[C@@H]2C[C@@H](O)CN2C(=O)[C@@H](NC(=O)CCCCCC(=O)N2CCN(CC[C@H](CSc3ccccc3)Nc3ccc(S(=O)(=O)NC(=O)c4ccc(N5CC6CCC5C6)cc4)cc3S(=O)(=O)C(F)(F)F)CC2)C(C)(C)C)cc1 (stereo partly shown) [I-40]	> 30000 nM	> 3000 nM	50 to 75%	500 to 1000 nM	
Cc1ncsc1-c1ccc([C@H](C)NC(=O)[C@@H]2C[C@@H](O)CN2C(=O)[C@@H](NC(=O)CCCCCC(=O)N2CCN(CC[C@H](CSc3ccccc3)Nc3ccc(S(=O)(=O)NC(=O)c4ccc(N5CCCN(C)CC5)cc4)cc3S(=O)(=O)C(F)(F)F)CC2)C(C)(C)C)cc1 [I-41]	> 30000 nM	> 3000 nM	< 50%	500 to 1000 nM	
Cc1ncsc1-c1ccc([C@H](C)NC(=O)[C@@H]2C[C@@H](O)CN2C(=O)[C@@H](NC(=O)CCCCCC(=O)N2CCCN(CCCNc3ccc(S(=O)(=O)NC(=O)c4ccc(N5CCN(CC6=C(c7ccc(Cl)cc7)CC(C)(C)CC6)CC5)cc4Oc4cnc5[nH]ccc5c4)cc3S(=O)(=O)C(F)(F)F)CC2)C(C)(C)C)cc1 [I-106]	> 30000 nM	< 100 nM	50 to 75%	10 to 100 nM	
Cc1ncsc1-c1ccc([C@H](C)NC(=O)[C@@H]2C[C@@H](O)CN2C(=O)[C@@H](NC(=O)CCCCCCN2CCN(CC[C@H](CSc3ccccc3)Nc3ccc(S(=O)(=O)NC(=O)c4ccc(N5CCN(Cc6ccccc6-c6ccc(Cl)cc6)CC5)cc4)cc3[N+](=O)[O-])CC2)C(C)(C)C)cc1 [I-13]	> 30000 nM	> 3000 nM	50 to 75%	500 to 1000 nM	
Cc1ncsc1-c1ccc([C@H](C)NC(=O)[C@@H]2C[C@@H](O)CN2C(=O)[C@@H](NC(=O)CCCCCC(=O)N2CCN(c3ccc(-c4ccc(Cl)cc4)c([C@H](O)C4CCN(c5ccc(C(=O)NS(=O)(=O)c6ccc(N[C@H](CCN(C)CCO)CSc7ccccc7)c(S(=O)(=O)C(F)(F)F)c6)cc5)CC4)c3)CC2)C(C)(C)C)cc1 (single isomer, unassigned) [I-113]	> 30000 nM	100 to 1000 nM	> 75%	< 10 nM	
Cc1ncsc1-c1ccc([C@H](C)NC(=O)[C@@H]2C[C@@H](O)CN2C(=O)[C@@H](NC(=O)CCCCCC(=O)N2CCN(CCCNc3ccc(S(=O)(=O)NC(=O)c4ccc(N5CCC([C@H](O)c6ccccc6-c6ccc(Cl)cc6)CC5)cc4Oc4cnc5[nH]ccc5c4)cc3S(=O)(=O)C(F)(F)F)CC2)C(C)(C)C)cc1 (single isomer, unassigned) [I-38]	> 30000 nM	100 to 1000 nM	50 to 75%	100 to 500 nM	
Cc1ncsc1-c1ccc([C@H](C)NC(=O)[C@@H]2C[C@@H](O)CN2C(=O)[C@@H](NC(=O)CCCCCN(C)CCCNc2ccc(S(=O)(=O)NC(=O)c3ccc(N4CCN(CC5=C(c6ccc(Cl)cc6)CC(C)(C)CC5)CC4)cc3Oc3cnc4[nH]ccc4c3)cc2S(=O)(=O)C(F)(F)F)C(C)(C)C)cc1 [I-69]	> 30000 nM	> 3000 nM	< 50%	500 to 1000 nM	
C#Cc1ccc([C@H](C)NC(=O)[C@@H]2C[C@@H](O)CN2C(=O)[C@@H](NC(=O)CCCCCC(=O)N2CCN(CCCNc3ccc(S(=O)(=O)NC(=O)c4ccc(N5CCN(CC6=C(c7ccc(Cl)cc7)CC(C)(C)CC6)CC5)cc4Oc4cnc5[nH]ccc5c4)cc3S(=O)(=O)C(F)(F)F)CC2)C(C)(C)C)cc1 [I-85]	> 30000 nM	100 to 1000 nM	< 50%	500 to 1000 nM	
Cc1ncsc1-c1ccc([C@H](C)NC(=O)[C@@H]2C[C@@H](O)CN2C(=O)[C@@H](NC(=O)CCCCCC(=O)N2CCN(CCCNc3ccc(S(=O)(=O)NC(=O)c4ccc(N5CCC([C@@H](O)c6ccccc6-c6ccc(Cl)cc6)CC5)cc4Oc4cnc5[nH]ccc5c4)cc3S(=O)(=O)C(F)(F)F)CC2)C(C)(C)C)cc1 (single isomer, unassigned) [I-23]	> 30000 nM	100 to 1000 nM	< 50%	500 to 1000 nM	
C#Cc1ccc([C@H](CO)NC(=O)[C@@H]2C[C@@H](O)CN2C(=O)[C@@H](NC(=O)CCCCCC(=O)N2CCN(CCCNc3ccc(S(=O)(=O)NC(=O)c4ccc(N5CCN(CC6=C(c7ccc(Cl)cc7)CC(C)(C)CC6)CC5)cc4Oc4cnc5[nH]ccc5c4)cc3S(=O)(=O)C(F)(F)F)CC2)C(C)(C)C)cc1 [I-102]	> 30000 nM	< 100 nM	> 75%	< 10 nM	
Cc1ncsc1-c1ccc([C@H](C)NC(=O)[C@@H]2C[C@@H](O)CN2C(=O)[C@@H](NC(=O)CCCCCC(=O)N2CCN(CC[C@H](CSc3ccccc3)Nc3ccc(S(=O)(=O)NC(=O)c4ccc(N5CC6CC6C5)cc4)cc3S(=O)(=O)C(F)(F)F)CC2)C(C)(C)C)cc1 (stereo partly shown) [I-37]	> 30000 nM	> 3000 nM	< 50%	500 to 1000 nM	
Cc1ncsc1-c1ccc([C@H](C)NC(=O)[C@@H]2C[C@@H](O)CN2C(=O)[C@@H](NC(=O)CCCCC(=O)N2CCN(CC[C@H](CSc3ccccc3)Nc3ccc(S(=O)(=O)NC(=O)c4ccc(N5CCC([C@@H](O)c6ccccc6-c6ccc(Cl)cc6)CC5)cc4)cc3S(=O)(=O)C(F)(F)F)CC2)C(C)(C)C)cc1 [I-109]	> 30000 nM	100 to 1000 nM	> 75%	10 to 100 nM	
C#Cc1ccc([C@H](C)NC(=O)[C@@H]2C[C@@H](O)CN2C(=O)[C@@H](NC(=O)CCCCCC(=O)N2CCN(CC[C@H](CSc3ccccc3)Nc3ccc(S(=O)(=O)NC(=O)c4ccc(N5CCC([C@H](O)c6ccccc6-c6ccc(Cl)cc6)CC5)cc4)cc3S(=O)(=O)C(F)(F)F)CC2)C(C)(C)C)cc1 (single isomer, unassigned) [I-33]	> 30000 nM	1000 to 3000 nM	50 to 75%	100 to 500 nM	
Cc1ncsc1-c1ccc([C@H](C)NC(=O)[C@@H]2C[C@@H](O)CN2C(=O)[C@@H](NC(=O)CCCCCCCC(=O)N2CCN(CCCNc3ccc(S(=O)(=O)NC(=O)c4ccc(N5CCN(CC6=C(c7ccc(Cl)cc7)CC(C)(C)CC6)CC5)cc4Oc4cnc5[nH]ccc5c4)cc3S(=O)(=O)C(F)(F)F)CC2)C(C)(C)C)cc1 [I-86]	> 30000 nM	100 to 1000 nM	50 to 75%	10 to 100 nM	
Cc1ncsc1-c1ccc([C@H](C)NC(=O)[C@@H]2C[C@@H](O)CN2C(=O)[C@@H](NC(=O)CCCCCCN(C)CC[C@H](CSc2ccccc2)Nc2ccc(S(=O)(=O)NC(=O)c3ccc(N4CCC([C@@H](O)c5ccccc5-c5ccc(Cl)cc5)CC4)cc3)cc2S(=O)(=O)C(F)(F)F)C(C)(C)C)cc1 [I-108]	> 30000 nM	< 100 nM	50 to 75%	10 to 100 nM	
Cc1ncsc1-c1ccc([C@H](C)NC(=O)[C@@H]2C[C@@H](O)CN2C(=O)[C@@H](NC(=O)CCCCCC(=O)N2CCN(CC[C@H](CSc3ccccc3)Nc3ccc(S(=O)(=O)NC(=O)c4ccc(N5CC6CN(C)CC6C5)cc4)cc3S(=O)(=O)C(F)(F)F)CC2)C(C)(C)C)cc1 (stereo partly shown) [I-47]	> 30000 nM	> 3000 nM			
Cc1ncsc1-c1ccc([C@H](C)NC(=O)[C@@H]2C[C@@H](O)CN2C(=O)[C@@H](NC(=O)CCCCCC(=O)N2CCN(Cc3ccc(-c4ccc(Cl)cc4)c([C@H](O)C4CCN(c5ccc(C(=O)NS(=O)(=O)c6ccc(N[C@H](CCN(C)CCO)CSc7ccccc7)c(S(=O)(=O)C(F)(F)F)c6)cc5)CC4)c3)CC2)C(C)(C)C)cc1 [I-30]	> 30000 nM	> 3000 nM			
